In patent US6784181B2, “Piperazine-containing compounds useful in the treatment of pain” (AstraZeneca AB, priority 1999, dated 2004):
Counter-ions that a name gives are not always drawn. Like-named read-outs stand apart in the source and are kept apart here.

Key:
RAT BRAIN = RAT BRAIN (Rattus norvegicus, UniProt P33533); experiment: Functional agonism rat brain (EC50, % EMAX); assay type: biochemical
MOUSE BRAIN = MOUSE BRAIN (Mus musculus, UniProt P32300); experiment: Functional agonism mouse brain (EC50, % EMAX); assay type: biochemical
Sequence of MOUSE BRAIN (P32300 whole entry): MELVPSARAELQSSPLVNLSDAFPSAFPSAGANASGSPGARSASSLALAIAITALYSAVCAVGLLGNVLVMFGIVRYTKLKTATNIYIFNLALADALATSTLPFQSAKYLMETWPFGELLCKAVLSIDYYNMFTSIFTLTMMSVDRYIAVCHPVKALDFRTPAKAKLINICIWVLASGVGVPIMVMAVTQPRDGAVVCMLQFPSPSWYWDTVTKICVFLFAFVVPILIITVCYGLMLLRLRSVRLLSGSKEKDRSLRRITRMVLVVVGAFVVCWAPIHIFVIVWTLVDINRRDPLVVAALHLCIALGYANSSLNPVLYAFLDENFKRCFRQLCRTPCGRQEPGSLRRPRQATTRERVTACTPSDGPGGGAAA

HDELTA = target: T1, HDELTA (Homo sapiens, UniProt P41143); experiment: Functional agonism HDELTA (EC50, % EMAX); assay type: biochemical
T1 construct: expressed in transfected cells
T1 sequence (P41143 whole entry): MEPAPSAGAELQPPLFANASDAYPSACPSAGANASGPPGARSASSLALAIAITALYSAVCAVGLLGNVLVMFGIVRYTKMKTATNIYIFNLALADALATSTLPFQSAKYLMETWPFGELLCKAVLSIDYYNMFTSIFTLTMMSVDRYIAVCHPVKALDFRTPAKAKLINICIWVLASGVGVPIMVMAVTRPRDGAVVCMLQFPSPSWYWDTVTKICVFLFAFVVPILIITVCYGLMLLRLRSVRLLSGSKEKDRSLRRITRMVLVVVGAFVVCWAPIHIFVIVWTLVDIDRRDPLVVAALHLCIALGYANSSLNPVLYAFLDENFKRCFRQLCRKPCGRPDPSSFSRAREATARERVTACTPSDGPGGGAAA

[1] = target: T2, cloned human δ receptors (HDELTA) (Homo sapiens, UniProt P41143); experiment: Binding assay, membranes of 293S cells expressing cloned human δ receptor
T2 construct: expressed in transfected cells; host or cells: human 293S cells (geneticin-selected), membranes
T2 sequence (P41143 whole entry): as above

[2] = Metabolic stability MLM (% remaining); assay type: in vitro ADME, mouse
[3] = Metabolic stability RLM (% remaining); assay type: in vitro ADME, rat
[4] = displacement of radioligand, human δ receptor membranes, read-out: HDELTA

Sequence of RAT BRAIN (P33533 whole entry): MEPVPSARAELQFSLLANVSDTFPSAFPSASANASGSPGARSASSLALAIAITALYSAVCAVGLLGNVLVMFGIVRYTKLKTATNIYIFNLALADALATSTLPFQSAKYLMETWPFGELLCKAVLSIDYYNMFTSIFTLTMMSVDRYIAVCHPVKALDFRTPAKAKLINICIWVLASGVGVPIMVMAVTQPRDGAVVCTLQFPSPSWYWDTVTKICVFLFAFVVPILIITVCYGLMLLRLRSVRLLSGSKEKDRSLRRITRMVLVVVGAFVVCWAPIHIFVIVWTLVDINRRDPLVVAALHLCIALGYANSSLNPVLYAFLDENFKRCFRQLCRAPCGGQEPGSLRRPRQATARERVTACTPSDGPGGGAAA

SMILES	EC50 (RAT BRAIN)	RAT BRAIN % EMAX (RAT BRAIN)	EC50 (MOUSE BRAIN)	MOUSE BRAIN % EMAX (MOUSE BRAIN)	HDELTA % EMAX (HDELTA)	EC50 (HDELTA; read-out: HDELTA EC50)	IC50 [1, 4]	Emax (RAT BRAIN)	MLM 10000 % rem. [2]	MLM 100000 % rem. [2]	RLM 10000 % rem. [3]	RLM 100000 % rem. [3]	Emax (MOUSE BRAIN)	EC50 (HDELTA)	Emax (HDELTA)	IC50 [1]
CCN(CC)C(=O)c1ccc(C(c2cccc3cccnc23)N2CCN(Cc3nc[nH]n3)CC2)cc1.Cl.Cl (stereo not drawn) [Example 19, N,N-diethyl-4-[[4-(3-triazolylmethyl)-1-piperazinyl](8-quinolinyl)methyl]benzamide Dihydrochloride]	2810 nM	56.35%	1370 nM	48.68%	97.88%	85.2 nM	18.8 nM	–	–	–	–	–	–	–	–	–
CCN(CC)C(=O)c1ccc(C(c2cccc3cccnc23)N2CCN(Cc3ccccn3)CC2)cc1 (stereo not drawn) [Example 12, N,N-diethyl-4-[[4-(2-pyridinylmethyl)-1-piperazinyl](8-quinolinyl)methyl]benzamide Dihydrochloride]	–	–	–	–	–	–	–	106%	0 % rem.	53.5 % rem.	21.5 % rem.	66 % rem.	91.3%	0.76 nM	97.7%	0.692 nM
CCN(CC)C(=O)c1ccc(C(c2cccc3cccnc23)N2CCN(Cc3ncc[nH]3)CC2)cc1.Cl.Cl (stereo not drawn) [Example 17, N,N-diethyl-4-[[4-(2-imidazolylmethyl)-1-piperazinyl](8-quinolinyl)methyl]benzamide Dihydrochloride]	–	–	–	–	–	–	–	106%	0 % rem.	21.5 % rem.	5.5 % rem.	75 % rem.	92.5%	3.03 nM	95.7%	1.09 nM
CCN(CC)C(=O)c1ccc(C(c2cccc3cccnc23)N2CCN(Cc3ccco3)CC2)cc1 (stereo not drawn) [Example 14, N,N-diethyl-4-[[4-(2-furanylmethyl)-1-piperazinyl](8-quinolinyl)methyl]benzamide]	–	–	–	–	–	–	–	102%	0 % rem.	49 % rem.	13.5 % rem.	84.5 % rem.	106%	0.76 nM	88.7%	0.181 nM
CCN(CC)C(=O)c1ccc(C(c2cccc3cccnc23)N2CCN(Cc3ccsc3)CC2)cc1 (stereo not drawn) [Example 13, N,N-diethyl-4-[[4-(3-thienylmethyl)-1-piperazinyl](8-quinolinyl)methyl]benzamide]	–	–	–	–	–	–	–	112%	1.667 % rem.	71.667 % rem.	10 % rem.	62.667 % rem.	113%	1.44 nM	101%	1.03 nM
CCN(CC)C(=O)c1ccc(C(c2cccc3cccnc23)N2CCN(Cc3ccoc3)CC2)cc1 (stereo not drawn) [Example 15, N,N-diethyl-4-[[4-(3-furanylmethyl)-1-piperazinyl](8-quinolinyl)methyl]benzamide]	–	–	–	–	–	–	–	109%	0 % rem.	68 % rem.	10 % rem.	86 % rem.	110%	0.79 nM	89%	0.787 nM
CCN(CC)C(=O)c1ccc(C(c2cccc3cccnc23)N2CCN(Cc3cccs3)CC2)cc1.Cl.Cl (stereo not drawn) [Example 16, N,N-diethyl-4-[[4-(2-thiophenylmethyl)-1-piperazinyl](8-quinolinyl)methyl]benzamide Dihydrochloride]	–	–	–	–	–	–	–	100%	0.5 % rem.	46.5 % rem.	9.5 % rem.	64.5 % rem.	98.4%	2.39 nM	99.4%	1.51 nM
CCN(CC)C(=O)c1ccc(C(c2cccc3cccnc23)N2CCN(Cc3c[nH]cn3)CC2)cc1 (stereo not drawn) [Example 18, N,N-diethyl-4-[[4-(4-imidazolylmethyl)-1-piperazinyl](8-quinolinyl)methyl]benzamide Dihydrochloride]	–	–	–	–	–	5.85 nM	1.54 nM	111%	–	–	–	–	108%	–	93.8%	–
